Experimental data as given in a melting point compilation (Tetko et al.; mined from patent text by program, amines drawn as free bases though some values may be those of a salt).

Structure (SMILES) | melting point [°C]
C[C@H](CNC(=O)c1c(Cl)ccc2nc(N3CCC(C(=O)O)CC3)ccc12)c1ccccc1 | 150 to 153
COC(=O)C1(Cl)CCC(=O)O1 (stereo not drawn) | 50.5 to 51
CCc1cccc2c3c([nH]c12)C(CC)(CC(N)=O)OCC3 (stereo not drawn) | 189 to 190
O=C(O)c1cc(F)c(F)c(OC(F)F)c1F | 68 to 70
COC(=O)c1cccc(Cl)c1N | 36
Cn1c(=O)[nH]c(=O)c2c1ncn2Cc1noc(Cc2ccccc2)n1 | 188 to 190
N=C(N)Nc1ccc(CCC(=O)O)cc1 | > 300
Cc1oc(C)c(C(=O)Nc2ccc(Cl)c(C(=O)OC(C)C)c2)c1C | 83 to 85
Cc1cccc(NC(c2cccc(O)c2)c2ccc3cccnc3c2O)n1 (stereo not drawn) | 187 to 189
CC(C)(C)c1ccc(-c2cc3ccc(C(=O)O)cc3[nH]2)cc1 | 297
O=C(O)c1ccc(-c2nc(-c3ccc(C(F)(F)F)cc3)no2)c([N+](=O)[O-])c1 | 233 to 234
COc1c(F)c(F)c(C(=O)c2ccc(Br)cc2)c(F)c1F | 80 to 82
CC(C)(C)n1nc(-c2ccoc2)c(C(N)=O)c1N | 177
CC(C)(C)[Si](C)(C)OC(=O)O[Si](C)(C)C(C)(C)C | 128 to 130
CNC(COc1ccc(C2C(=O)Oc3c2cc(C(C)(C)C)cc3C(C)(C)C)cc1)C(=O)O (stereo not drawn) | 115 to 121
CCN1C(=O)CCCc2cc(Nc3ncc(Cl)c(Nc4ccccc4OC)n3)c(OC)cc21 | 78 to 80
CCOC(=O)C(=NNc1ccc(C)cc1C)C(C)=O | 106 to 108
OCC1CCn2c(cc3ccccc32)C1 (stereo not drawn) | 110 to 111
O=[N+]([O-])c1ccc(C(O)CSCc2ccncc2)cc1 (stereo not drawn) | 135 to 137
O=C(CC1=CC(OC2CCCCO2)CC1=O)Oc1ccc2ccccc2c1 (stereo not drawn) | 75
O=C(O)Cc1cccc(Oc2ccc(Cl)cc2)c1O | 100 to 102
CSc1nc(CC2CCN(c3ccc(F)cc3)CC2)nc(C(=O)NCC(=O)O)c1O | 228 to 230
O=C(O)C[C@@H](c1ccccc1)c1c[nH]c2cc(OCCCNc3ccccn3)ccc12 | 137
CCCc1c(OCc2ccc(CSC#N)cc2)ccc(C(C)=O)c1O | 110 to 111
O=C(O)c1cnn(-c2c(Cl)cc(C(F)(F)F)cc2Cl)n1 | 155 to 157
CC(C)(CO)NC(=O)c1cc(F)c(F)cc1F | 114 to 116

Structure (SMILES) | melting point [°C]
CCCCCCCCCCCCCCCCCCOC[C@@H](O)COC(=O)CCCCl | 48
Cn1c(C(F)(F)F)cc(=O)n(-c2ccc3snc(COCC(=O)O)c3c2)c1=O | 191 to 192
COC(=O)c1ccc(-c2n[nH]c3c2CCc2nc(C(C)C)c(C(C)C)nc2-3)cc1 | 204 to 206
Cc1cc(Cl)cc(C(=O)Nc2nc(C)cs2)n1 | 176
Cc1c(-c2ccc(F)cc2)c(-c2ccccc2)nn1C(C)C | 135 to 137
CCC(C)(C)c1ccc(OCCCCNC(=O)c2cc(Sc3nnnn3-c3ccccc3)c3ccccc3c2O)c(C(C)(C)CC)c1 | 147 to 148
O=C(O)CN1C(=O)C(=Cc2ccc(Cl)cc2Cl)SC1=S | > 237
CCOC(=O)c1cc(=O)n(Cc2ccc(S(=O)(=O)O)cc2S(=O)(=O)O)[nH]1 | > 300
CCCOc1ccccc1-c1nc(O)cc(C(=O)OCC)n1 | 137 to 138
COc1ccc([C@H](O)[C@@H](Cc2ccc(C(F)(F)F)cc2)NC(=O)CCc2ccccc2)cc1 (racemic) | 116 to 117
COc1ccccc1N1CCN(CCCCc2ccc(C3CCC(=O)N3)cc2)CC1 (stereo not drawn) | 130 to 131
CCCCN(CCCC)S(=O)(=O)c1cc(O)c(N=Nc2c(C)nn(-c3ccccc3)c2O)c2ccccc12 | 173 to 174
COc1ccc(CCC#N)cc1OC | 45 to 48
CCN(CCO)c1ccc(C(=O)OC)cc1 | 61 to 64
Cc1c(-c2ccc(Cl)cc2Cl)nn(C)c1S(C)(=O)=O | 110 to 112
O=C(NCCN1CCCCC1)Nc1ccc(-c2cnc(COCc3cc4ccccc4o3)o2)cc1 | 102 to 104
CCOC(=O)c1cnc(SC)nc1Nc1ccc2cn[nH]c2c1 | 212 to 214
CC(C)NCCc1ccc(O)cc1 | 102 to 104
CCCCc1ccc(Cn2cc(C3c4ccccc4C=Cc4ccccc43)c(=S)[nH]c2=O)cc1C(=O)O | 230
Cc1cc(N)cnc1-c1ccccc1 | 93 to 98
COc1cc(N)c(Cl)cc1C(=O)NCC12CCCN(CC1)C2 (stereo not drawn) | 185 to 187
Nc1cccc(-c2ccc(CCN3CCN(C(=O)NCc4ccccc4)CC3)cc2)n1 | 172 to 175
Nc1nc2ccc3cc(S(=O)(=O)Nc4ccc(C(=O)N[C@@H](CCC(=O)O)C(=O)O)cc4)c(Br)cc3c2c(=O)[nH]1 | 238 to 242
CCCc1cc(CCCOc2c(C)cc(-c3nc(C)no3)cc2C)on1 | 35 to 37
CCCCCCCCCCCCCCCNC(=O)OCCOCCOCCOC(=O)N(Cc1ccccn1)C(C)=O | 42 to 43
CCCCc1nc(N)cc(=O)[nH]1 | 242 to 245

Structure (SMILES) | melting point [°C]
CC(C)c1ccc(-c2coc3cc(O)c(O)cc3c2=O)cc1 | 181 to 182
Cc1ccc(S(=O)(=O)OCCC2CCN(C(c3ccccc3)(c3ccccc3)c3ccccc3)CC2)cc1 | 176
Cc1ccc(C)n1C1=CC2=C(CC1)CCc1[nH]c(=O)c(=O)n(OCC(=O)O)c12 | > 260
NCCCC1(C(N)=O)c2ccccc2-c2ccccc21 | 198 to 200
COC(=O)c1ccc(CNC(C)=O)cc1S(=O)(=O)NC(=O)Nc1nc(OC)cc(OC)n1 | 149 to 150
CC(C)Cc1sc(-c2nccs2)c2c1C(=O)CC(C)(C)C2 | 98 to 100
N#Cc1ccc(NCc2cccc(F)c2)cc1 | 63 to 64
CS(=O)(=O)N1CCS(=O)c2ccccc2C1 (stereo not drawn) | 195 to 197
Cc1ccccc1-c1cn(C)cc(-c2ccc(Cl)c(Cl)c2)c1=O | 103 to 106
CNC1CCc2[nH]c3cccc(C)c3c2C1 (stereo not drawn) | 163 to 166
NNC(=O)c1nc(CS(=O)(=O)c2ccc(Cl)cc2)no1 | 177
Cc1ccc(C(O)(c2ccc(C)cc2)[C@H](C)n2ccnc2)cc1 | 194 to 196
COc1ccc(-c2cc(Nc3c(C)cc(C)cc3C)nc(C)n2)cc1OC | 168 to 170
CN1CCN(c2n[nH]c(-c3ccc(I)cc3)c2-c2ccncc2)CC1 | 265 to 266
O=C1NCc2cc(C3CC3)sc21 | 109 to 110
CC(C)(C)OC(=O)C=Cc1ccc2ccccc2n1 | 96 to 97
N=C(NCC1(c2ccccc2)CC1)NN=Cc1c(Cl)cccc1Cl | 136 to 138
Cc1c(C)c2c(c(C)c1N)C(c1ccc(F)cc1)C(C)(C)O2 (stereo not drawn) | 126 to 127
CCC(=O)c1cc2c(cc1O)CCCC2 | 57 to 58
C=Cn1cc(C(=O)OCC)c(=O)c2c(C)c(F)c(F)c(F)c21 | 134 to 136
C=CCN(CC=C)Cc1noc(-c2ncn3c2[C@@H]2CCN2C(=O)c2c-3ccc(F)c2Cl)n1 | 127
Nc1nc2c(sc(=O)n2C/C=C\CCl)c(=O)[nH]1 | 200 to 202
CCCCCCCCCCC[C@@H](C[C@@H]1OC(=O)[C@H]1CCCCCC)OC(=O)[C@H](CC(C)C)NC(=O)OCc1ccccc1 | 43 to 46
Cn1nc(-c2ccccc2)c(N)c1-c1ccccc1 | 80 to 81
O=C(Nc1ccc2cc(CN3CCC(CCO)CC3)cnc2c1)c1ccc(-c2ccc(F)cc2)cc1 | 193 to 196
CC(C)n1c2cc(C(F)(F)F)ccc2c2oc(C(=O)Cl)cc21 | 128 to 129

Structure (SMILES) | melting point [°C]
Cc1c2n(c3ccccc13)CCC(Br)C2=O (stereo not drawn) | 126 to 128
CC(C)CCN1C(=O)C(NC(=O)Oc2cccc(N(C)C)c2)C(=O)N(c2ccccc2)c2cc(F)ccc21 (stereo not drawn) | 229 to 230
Fc1cc2c(Cl)ncnc2cn1 | 75 to 76
CNC(=O)Nc1occ(C(C)(C)C)c1C#N | 163
COc1cc(SCc2ccccc2)c([N+](=O)[O-])cc1OC | 174 to 176
COc1cc(N)c(Cl)cc1C(=O)NCC1CCN(CCCOCc2ccccc2)CC1 | 82 to 83
CCN(CC)CCn1c2c(c3ccccc31)CCS(=O)(=O)CCC2 | 118 to 120
CN(C)C1(c2ccc(C(C)(C)C)cc2)CCC(=O)CC1 | 82.5 to 87
CCOC(=O)c1ncc2[nH]c3cccc(COC(C)=O)c3c2c1COC | 129 to 133
COC(=O)Cc1cc2c(s1)-n1c(C)nnc1C(C)N=C2c1ccccc1Cl (stereo not drawn) | 105 to 106
Cc1cc(-c2ccc(Cl)cc2)n(-c2ccc(S(N)(=O)=O)cc2)c1 | 196 to 198
CC(=O)Oc1cc(OCc2ccccc2)cc(OC(C)=O)c1 | 129 to 130
CCCCc1ccc(S(=O)(=O)Nc2cc(C)on2)s1 | 96.5 to 101
Cc1ccc(S(=O)(=O)N2[C@@H](CCC(=N)NO)CC[C@H]2c2ccc(F)cc2)cc1 (racemic) | 134
CC(C)(C)c1nc2cc(N3CCOCC3)c(N)cc2s1 | 158 to 159
CCNc1nc(-c2ccc(NC(=O)NCc3cccnc3)cc2)ccc1C(=O)NC | 260 to 263
CNCCCCOc1ccc2c(ccn2-c2ccc(F)cc2)c1 | 49 to 50
CCCNC(=O)n1nc(Oc2ccc(C(F)(F)F)cc2[N+](=O)[O-])cc1C | 50 to 51
O=C(NO)c1ccc(C(=O)NC/C=C/c2ccccc2)cc1 | 169 to 170
CC1(C)OC(c2ccc(S(C)(=O)=O)cc2)=C(c2cccc3ccccc23)C1=O | 194 to 195
Clc1ccc2nc(-c3ccccn3)nn2c1 | 118 to 119
CSCc1cn(C)c2cc(F)ccc2c1=O | 167 to 169
CNC(=O)Nc1nccc(Oc2ccc3c(C(=O)Nc4ccc(F)c(C(F)(F)F)c4)cccc3c2)n1 | 233 to 234
CC(=O)Nc1ccc(-c2cc(C(=O)c3ccccc3)sc2N2CCOCC2)cc1 | 165
CC(=O)OC[C@H]1OC(O)(Cl)[C@H](NC(=O)c2cccnc2)[C@@H](OC(C)=O)[C@@H]1OC(C)=O (stereo partly drawn) | 175 to 176
